These are literature values, as cited in US20030162781A1, “Vehicle for applying chemical compounds on wood” (priority 2001, published 2003).

Structures are written as SMILES.

For the data set the following is noted: water as carrier.

In the case of `O` [Water], the wood penetration entry is reported as “scarcely penetrates the wood”.
